Assay results as given in patent US10076519B2 (CYTOKINETICS, INC., priority 2010, dated 2018).

These compounds were tested on rabbit skeletal myofibrils (fast skeletal myofibrils) (assay: Activation of fast skeletal myofibrils (PUMA assay, PK/LDH-coupled ATPase at pCa25)). Conditions: AC1.4 determined according to the procedure of Example 39; reported as class symbols.
Type: biochemical
Procedure: Preparation of Fast Skeletal Myofibrils.
Rabbit skeletal myofibrils were prepared based upon the method of Herrmann et al. (Biochem. 32(28):7255-7263(1993). Myofibrils were prepared from rabbit psoas muscle purchased from Pel-Freez Biologicals (Arkansas) within 2 days of ordering, stored on ice. Minced muscle was homogenized in 10 volumes of ice-cold “standard” buffer (50 mM Tris, pH 7.4, 0.1M potassium acetate, 5 mM KCl, 2 mM DTT, 0.2 mM PMSF, 10 μM leupeptin, 5 μM pepstatin, and 0.5 mM sodium azide) containing 5 mM EDTA and 0.5% Triton X-100 using an Omni-Macro homogenizer. Myofibrils were recovered by low speed centrifugation (3000 rpm for 10 minutes) and washed 2 times in the Triton X-100 containing buffer to ensure removal of cellular membrane. Following the Triton washes, myofibrils were washed 3 times in “standard” buffer containing 2 mM magnesium acetate. A final wash in assay buffer (12 mM PIPES, pH 6.8, 60 mM KCl, 1 mM DTT) was performed and brought to 10% sucrose for flash freezing in liquid nitrogen and storage at −80° C.
Activation of Fast Skeletal Myofibrils.
Fast fiber activators were identified by measuring the enzymatic activity of muscle myofibril preparations using the proprietary PUMA™ (see, e.g., U.S. Pat. Nos. 6,410,254, 6,743,599, 7,202,051, and 7,378,254) assay system. Myofibril preparations consisted of rabbit skeletal muscle (approximately 90% fast fibers) that had been mechanically homogenized and washed with a detergent (triton X-100) to remove cellular membranes. This preparation retained all of the sarcomeric components in a native conformation and the enzymatic activity was still regulated by calcium. Compounds were tested using a myofibril suspension and a level of calcium sufficient to increase enzymatic activity of the myofibrils to 25% of their maximal rate (termed pCa25). Enzymatic activity was tracked via a pyruvate kinase and lactate dehydrogenase-coupled enzyme system. This assay regenerates myosin-produced ADP into ATP by oxidizing NADH, producing an absorbance change at 340 nm. The buffering system was 12 mM Pipes, 2 mM MgCl2, 1 mM DTT at pH 6.8 (PM12 buffer).
Using procedures similar to those described herein, utilizing reagents and intermediates commercially available (e.g., Sigma-Aldrich, St. Louis, Mo.) or readily synthesized by one of skill in the art, the compounds in Table 2 were synthesized, characterized and tested. AC1.4 values were determined according to the procedure described in Example 39, and the reported median AC1.4 values are as follows: A=<1 uM; B=1-10 uM; C=10-20 uM; D=>20 uM.

Row | SMILES | Mean AC1.4
1 | CC(C)(CNc1ccc(-c2cccc3c(N)n[nH]c23)nn1)c1ccc(F)cc1 [[6-(3-amino(1H-indazol-7-yl))pyridazin-3-yl][2-(4-fluorophenyl)-2-methylpropyl]amine] | B (B=1-10 uM)
2 | Fc1cccnc1C1(CNc2ccc(-c3ccccc3OC(F)(F)F)nn2)CCC1 | A (A=<1 uM)
3 | CC(C)(CNc1ccc(-c2ccccc2C(N)=O)nn1)c1ccc(F)cc1 [2-(6-{[2-(4-fluorophenyl)-2-methylpropyl]amino}pyridazin-3-yl)benzamide] | B (B=1-10 uM)
4 | CC(C)(CNc1ccc(-c2ccc3[nH]nc(N)c3c2)nn1)c1ccc(F)cn1 [[6-(3-amino(1H-indazol-5-yl))pyridazin-3-yl][2-(5-fluoro(2-pyridyl))-2-methylpropyl]amine] | B (B=1-10 uM)
5 | COc1ccc(CCNc2ccc(-c3cccc(C(N)=O)c3)nn2)cc1 | D (D=>20 uM)
6 | CC(C)(C)CNc1ccc(-c2ccc3[nH]c(=O)[nH]c3c2)nn1 | D (D=>20 uM)
7 | CC(C)(CNc1ccc(-c2cccnc2O)nn1)c1ccc(F)cc1 [3-(6-{[2-(4-fluorophenyl)-2-methylpropyl]amino}pyridazin-3-yl)pyridin-2-ol] | B (B=1-10 uM)
8 | CC(C)(CNc1ccc(-c2cccc(N)c2)nn1)c1ccc(F)cc1 [[6-(3-aminophenyl)pyridazin-3-yl][2-(4-fluorophenyl)-2-methylpropyl]amine] | A (A=<1 uM)
9 | CC(C)(CNc1ccc(-c2cccc(C(N)=O)c2)nn1)OCc1ccccc1 | D (D=>20 uM)
10 | CC(C)(CNc1ccc(-c2cccc(F)c2)nn1)c1ccc(F)cc1 [[2-(4-fluorophenyl)-2-methylpropyl][6-(3-fluorophenyl)pyridazin-3-yl]amine] | A (A=<1 uM)
11 | c1ccc(C2(CNc3ccc(-c4ccc5[nH]ncc5c4)nn3)CCC2)nc1 [(6-(1H-indazol-5-yl)pyridazin-3-yl)[(2-pyridylcyclobutyl)methyl]amine] | A (A=<1 uM)
12 | CC(C)(CNc1ccc(C(=O)N[C@@H](CO)C(N)=O)nn1)c1ccc(F)cc1 [N-((1S)-1-carbamoyl-2-hydroxyethyl)(6-{[2-(4-fluorophenyl)-2-methylpropyl]amino}pyridazin-3-yl)carboxamide] | D (D=>20 uM)
13 | COCc1ccccc1C(C)(C)CNc1ccc(-c2ccc3[nH]nc(N)c3c2)nn1 [[6-(3-amino(1H-indazol-5-yl))pyridazin-3-yl]{2-[2-(methoxymethyl)phenyl]-2-methylpropyl}amine] | C (C=10-20 uM)

Same assay, conditions: median AC1.4 class, procedure of Example 39

Row | SMILES | Mean AC1.4
14 | O=C(NCc1cnc(-c2ccc(NCC3(c4ncccc4F)CCC3)nn2)s1)[C@H]1CCCN1 [((2R)pyrrolidin-2-yl)-N-({2-[6-({[(3-fluoro(2-pyridyl))cyclobutyl]methyl}ami-no)pyridazin-3-yl](1,3-thiazol-5-yl)}methyl)carboxamide] | A (A=<1 uM)
15 | NC(=O)[C@@H]1C[C@@H]1c1ccc(NCC2(c3ncccc3F)CCC2)nn1 | D (D=>20 uM)
16 | NC(=O)c1nnc(-c2ccc(NCC3(c4ncccc4F)CCC3)nn2)s1 [5-[6-({[(3-fluoro-2-pyridyl)cyclobutyl]methyl}ami-no)pyridazin-3-yl]-1,3,4-thiadiazole-2-carboxamide] | B (B=1-10 uM)
17 | CC(C)(Nc1ccc(-c2cccc(C(N)=O)c2)nn1)c1cccc(OC(F)F)n1 [3-[6-({1-[6-(difluoromethoxy)(2-pyridyl)]-isopropyl}amino)pyridazin-3-yl]benzamide] | B (B=1-10 uM)
18 | O=C(O)c1cnc(-c2ccc(NCC3(c4ncccc4F)CCC3)nn2)s1 [2-[6-({[(3-fluoro-2-pyridyl)cyclobutyl]methyl}ami-no)pyridazin-3-yl]-1,3-thiazole-5-carboxylic acid] | C (C=10-20 uM)
19 | CC(C)(O)C(=O)NCc1cnc(-c2ccc(NCC3(c4ncccc4F)CCC3)nn2)s1 [N-({2-[6-({[(3-fluoro(2-pyridyl))cyclobutyl]methyl}ami-no)pyridazin-3-yl](1,3-thiazol-5-yl)}methyl)-2-hydroxy-2-methylpropanamide] | A (A=<1 uM)
20 | O=C(Nc1ccn[nH]1)c1ccc(NCC2(c3ncccc3F)CCC2)nn1 [[6-({[(3-fluoro(2-pyridyl))cyclobutyl]methyl}ami-no)pyridazin-3-yl]-N-pyrazol-5-ylcarboxamide] | B (B=1-10 uM)
21 | NC(=O)c1ccc(F)c(-c2ccc(NC3(c4ncccc4Br)CCC3)nn2)c1 | A (A=<1 uM)
22 | CC(C)(Nc1ccc(-c2cccc(C(N)=O)c2)nn1)c1cccc(F)c1 [3-(6-{[1-(3-fluorophenyl)-isopropyl]amino}pyridazin-3-yl)benzamide] | B (B=1-10 uM)
23 | NC(=O)c1ccc(F)c(-c2ccc(NC3(c4ccc(F)cc4)CCC3)nn2)c1 | A (A=<1 uM)
24 | CS(=O)(=O)N1Cc2nc(-c3ccc(NCC4(c5ncccc5F)CCC4)nn3)sc2C1 [2-[6-({[(3-fluoro(2-pyridyl))cyclobutyl]methyl}ami-no)pyridazin-3-yl]-5-(methylsulfonyl)-3-pyrrolino[3,4-d]1,3-thiazole] | D (D=>20 uM)
25 | O=C(NCC(F)(F)CO)c1cnc(-c2ccc(NCC3(c4ncccc4F)CCC3)nn2)s1 [N-(2,2-difluoro-3-hydroxypropyl){2-[6-({[(3-fluoro(2-pyridyl))cyclobutyl]methyl}ami-no)pyridazin-3-yl](1,3-thiazol-5-yl)}carboxamide] | A (A=<1 uM)
26 | NC(=O)N1CC(c2ccc(NCC3(c4ncccc4F)CCC3)nn2)C1 | D (D=>20 uM)
27 | Fc1cccnc1C1(CNc2ccc(-c3ncc(-c4cn[nH]c4)s3)nn2)CCC1 [{[(3-fluoro(2-pyridyl))cyclobutyl]methyl}[6-(5-pyrazol-4-yl(1,3-thiazol-2-yl))pyridazin-3-yl]amine] | A (A=<1 uM)
28 | O=C(NCc1cnc(-c2ccc(NCC3(c4ncccc4F)CCC3)nn2)s1)c1cn[nH]n1 [2H-1,2,3-triazol-4-yl-N-({2-[6-({[(3-fluoro(2-pyridyl))cyclobutyl]methyl}ami-no)pyridazin-3-yl](1,3-thiazol-5-yl)}methyl)carboxamide] | A (A=<1 uM)
29 | CNC(=O)Nc1cccc(-c2ccc(NCC3(c4ncccc4F)CCC3)nn2)c1 | A (A=<1 uM)
30 | NC(=O)c1cnc(-c2ccc(NC3(c4ncccc4F)CCC3)nn2)s1 [2-(6-{[(3-fluoro-2-pyridyl)cyclobutyl]amino}pyr-idazin-3-yl)-1,3-thiazole-5-carboxamide] | B (B=1-10 uM)

Same assay, conditions: median AC1.4 reported as class; procedure of Example 39

Row | SMILES | Mean AC1.4
31 | C[C@H](N)C(=O)N[C@@H](C)C(=O)OCC(=O)NCc1cnc(-c2ccc(NCC3(c4ncccc4F)CCC3)nn2)s1 [[N-({2-[6-({[(3-fluoro-2-pyridyl)cyclobutyl]methyl}ami-no)pyridazin-3-yl]-1,3-thiazol-5-yl}methyl)carbamoyl]methyl (2S)-2-((2S)-2-aminopropanoylamino)propanoate] | A (A=<1 uM)
32 | CN(Cc1cnc(-c2ccc(NCC3(c4ncccc4F)CCC3)nn2)s1)C(=O)CO [N-({2-[6-({[(3-fluoro(2-pyridyl))cyclobutyl]methyl}ami-no)pyridazin-3-yl](1,3-thiazol-5-yl)}methyl)-2-hydroxy-N-methylacetamide] | B (B=1-10 uM)
33 | N#Cc1cc(N)cc(-c2ccc(NC[C@]3(c4ncccc4F)C[C@H](F)C3)nn2)c1 [5-amino-3-[6-({[3-fluoro-1-(3-fluoro(2-pyridyl))cyclobutyl]methyl}ami-no)pyridazin-3-yl]benzenecarbonitrile] | A (A=<1 uM)
34 | NC(=O)Cc1cnc(-c2ccc(NC[C@]3(c4ncccc4F)C[C@H](F)C3)nn2)s1 [2-{2-[6-({[3-fluoro-1-(3-fluoro(2-pyridyl))cyclobutyl]methyl}ami-no)pyridazin-3-yl]-1,3-thiazol-5-yl}acetamide] | B (B=1-10 uM)
35 | O=C(Nc1ncc[nH]1)c1ccc(NCC2(c3ncccc3F)CCC2)nn1 [[6-({[(3-fluoro(2-pyridyl))cyclobutyl]methyl}ami-no)pyridazin-3-yl]-N-imidazol-2-ylcarboxamide] | C (C=10-20 uM)
